{"source": "patent US5294617A", "about": "“Angiotensin II receptor blocking 2,3,6 substituted quinazolinones” (American Cyanamid Company, priority 1993, dated 1994)", "tested_on": "ANGIOTENSIN II (AII) VASOPRESSOR RESPONSE", "assay": "AII Challenge: angiotensin II vasopressor response in conscious spontaneously hypertensive rats", "assay_type": "in vivo, Conscious Male Okamoto-Aoki SHR (rat)", "conditions": "10 mg/kg i.v.; for % Inhibition / Average Change: SHR n=2; for Response After AII / Response Change / Control Before AII: individual rat, SHR", "source_text": "By administering a compound of this invention to a rat, and then challenging with angiotensin II, a blockage of the vasopressor response is realized.\nConscious Male Okamoto-Aoki SHR, 16-20 weeks old, weighing approximately 330 g are purchased from Charles River Labs (Wilmington, Mass.). Conscious rats are restrained in a supine position with elastic tape. The area at the base of the tail is locally anesthetized by subcutaneous infiltration with 2% procaine. The ventral caudal artery and vein are isolated, and a cannula made of polyethylene (PE) 10-20 tubing (fused together by heat) is passed into the lower abdominal aorta and vena cava, respectively. The cannula is secured, heparinized (1,000 I.U./ml), sealed and the wound is closed. The animals are placed in plastic restraining cages in an upright position. The cannula is attached to a Statham P23Db pressure transducer, and pulsatile blood pressure is recorded to 10-15 minutes with a Gould Brush recorder. (Chan et al., (Drug Development Res., 18:75-94, 1989).\nAngiotensin II (human sequence, Sigma Chem. Co., St. Louis, Mo.) of 0.05 and 0.1 ug/kg i.v. is injected into all rats (predosing response). Then a test compound, vehicle or a known angiotensin II antagonist is administered i.v., i.p. or orally to each set of rats. The two doses of angiotensin II are given to each rat again at 30, 60, 90, 120, 180, 240 and 300 minutes post dosing the compound or vehicle. The vasopressor response of angiotensin II is measured for the increase in systolic blood pressure in mmHg. The percentage of antagonism or blockade of the vasopressor response of angiotensin II by a compound is calculated using the vasopressor response (increase in systolic blood pressure) of angiotensin II of each rat predosing the compound as 100%. A compound is considered active if at 30 mg/kg i.v. it antagonized at least 50% of the response.", "key": {"[1]": {"conditions": "AII 0.05 mcg/kg IV, 30 min post dose"}, "[2]": {"conditions": "AII 0.05 mcg/kg IV, 60 min post dose"}, "[3]": {"conditions": "AII 0.05 mcg/kg IV, 90 min post dose"}, "[4]": {"conditions": "AII 0.05 mcg/kg IV, 120 min post dose"}, "[5]": {"conditions": "AII 0.05 mcg/kg IV, 180 min post dose"}, "[6]": {"conditions": "AII 0.05 mcg/kg IV, 240 min post dose"}, "[7]": {"conditions": "AII 0.05 mcg/kg IV, 300 min post dose"}, "[8]": {"conditions": "AII 0.1 mcg/kg IV, 30 min post dose"}, "[9]": {"conditions": "AII 0.1 mcg/kg IV, 60 min post dose"}, "[10]": {"conditions": "AII 0.1 mcg/kg IV, 90 min post dose"}, "[11]": {"conditions": "AII 0.1 mcg/kg IV, 120 min post dose"}, "[12]": {"conditions": "AII 0.1 mcg/kg IV, 180 min post dose"}, "[13]": {"conditions": "AII 0.1 mcg/kg IV, 240 min post dose"}, "[14]": {"conditions": "AII 0.1 mcg/kg IV, 300 min post dose"}, "[15]": {"conditions": "AII 0.05 mcg/kg IV, 30 min post dose, 10 mg/kg"}, "[16]": {"conditions": "AII 0.05 mcg/kg IV, 60 min post dose, 10 mg/kg"}, "[17]": {"conditions": "AII 0.05 mcg/kg IV, 90 min post dose, 10 mg/kg"}, "[18]": {"conditions": "AII 0.05 mcg/kg IV, 180 min post dose, 10 mg/kg"}, "[19]": {"conditions": "AII 0.05 mcg/kg IV, 240 min post dose, 10 mg/kg"}, "[20]": {"conditions": "AII 0.05 mcg/kg IV, 300 min post dose, 10 mg/kg"}, "[21]": {"conditions": "AII 0.1 mcg/kg IV, 30 min post dose, 10 mg/kg"}, "[22]": {"conditions": "AII 0.1 mcg/kg IV, 60 min post dose, 10 mg/kg"}, "[23]": {"conditions": "AII 0.1 mcg/kg IV, 90 min post dose, 10 mg/kg"}, "[24]": {"conditions": "AII 0.1 mcg/kg IV, 120 min post dose, 10 mg/kg"}, "[25]": {"conditions": "AII 0.1 mcg/kg IV, 180 min post dose, 10 mg/kg"}, "[26]": {"conditions": "AII 0.1 mcg/kg IV, 240 min post dose, 10 mg/kg"}, "[27]": {"conditions": "AII 0.1 mcg/kg IV, 300 min post dose, 10 mg/kg"}}, "note": "Several values for one entry are separate records, joined by “and”; a condition that tells them apart may be missing. Identical values can stand only once."}
{"molecule": "CCCCc1nc2ccc([C@H]3C[C@H](CO)ON3C)cc2c(=O)n1Cc1ccc(-c2ccccc2-c2nnn[nH]2)cc1", "note": "(relative stereo) [Example 16, TRANS-2-butyl-6-[5-(hydroxymethyl)-2-methyl-3-isoxazolidinyl]-3-[[2'-(1H-tetrazol-5-yl)[1,1'-biphenyl]-4-yl]methyl]-4(3H)-quinazolinone]", "values": [{"measurement": "% Inhibition", "setting": "[1]", "value": 85, "unit": "%"}, {"measurement": "Average Change", "setting": "[1]", "value": 8, "unit": "mmHg"}, {"measurement": "% Inhibition", "setting": "[2]", "value": 76, "unit": "%"}, {"measurement": "Average Change", "setting": "[2]", "value": 12.5, "unit": "mmHg"}, {"measurement": "% Inhibition", "setting": "[3]", "value": 62, "unit": "%"}, {"measurement": "Average Change", "setting": "[3]", "value": 20, "unit": "mmHg"}, {"measurement": "% Inhibition", "setting": "[4]", "value": 67, "unit": "%"}, {"measurement": "Average Change", "setting": "[4]", "value": 17.5, "unit": "mmHg"}, {"measurement": "% Inhibition", "setting": "[5]", "value": 50, "unit": "%"}, {"measurement": "Average Change", "setting": "[5]", "value": 26.5, "unit": "mmHg"}, {"measurement": "% Inhibition", "setting": "[6]", "value": 50, "unit": "%"}, {"measurement": "Average Change", "setting": "[6]", "value": 26.5, "unit": "mmHg"}, {"measurement": "% Inhibition", "setting": "[7]", "value": 19, "unit": "%"}, {"measurement": "Average Change", "setting": "[7]", "value": 42.5, "unit": "mmHg"}, {"measurement": "% Inhibition", "setting": "[8]", "value": 81, "unit": "%"}, {"measurement": "Average Change", "setting": "[8]", "value": 10, "unit": "mmHg"}, {"measurement": "% Inhibition", "setting": "[9]", "value": 79, "unit": "%"}, {"measurement": "Average Change", "setting": "[9]", "value": 11.5, "unit": "mmHg"}, {"measurement": "% Inhibition", "setting": "[10]", "value": 77, "unit": "%"}, {"measurement": "Average Change", "setting": "[10]", "value": 12.5, "unit": "mmHg"}, {"measurement": "% Inhibition", "setting": "[11]", "value": 68, "unit": "%"}, {"measurement": "Average Change", "setting": "[11]", "value": 17.5, "unit": "mmHg"}, {"measurement": "% Inhibition", "setting": "[12]", "value": 54, "unit": "%"}, {"measurement": "Average Change", "setting": "[12]", "value": 25, "unit": "mmHg"}, {"measurement": "% Inhibition", "setting": "[13]", "value": 54, "unit": "%"}, {"measurement": "Average Change", "setting": "[13]", "value": 25, "unit": "mmHg"}, {"measurement": "% Inhibition", "setting": "[14]", "value": 26, "unit": "%"}, {"measurement": "Average Change", "setting": "[14]", "value": 40, "unit": "mmHg"}, {"measurement": "Response After AII", "setting": "[15]", "value": "198 mmHg and 190 mmHg"}, {"measurement": "Response Change", "setting": "[15]", "value": "3 mmHg and 13 mmHg"}, {"measurement": "Response After AII", "setting": "[16]", "value": "200 mmHg and 180 mmHg"}, {"measurement": "Response Change", "setting": "[16]", "value": "5 mmHg and 20 mmHg"}, {"measurement": "Response After AII", "setting": "[3]", "value": 190, "unit": "mmHg"}, {"measurement": "Response After AII", "setting": "[17]", "value": 215, "unit": "mmHg"}, {"measurement": "Response Change", "setting": "[17]", "value": "10 mmHg and 30 mmHg"}, {"measurement": "Response After AII", "setting": "[4]", "value": 210, "unit": "mmHg"}, {"measurement": "Response Change", "setting": "AII 0.05 mcg/kg IV, 120 min post dose, 10 mg/kg", "value": "15 mmHg and 20 mmHg"}, {"measurement": "Response After AII", "setting": "[5]", "value": 218, "unit": "mmHg"}, {"measurement": "Response After AII", "setting": "[18]", "value": 195, "unit": "mmHg"}, {"measurement": "Response Change", "setting": "[18]", "value": "23 mmHg and 30 mmHg"}, {"measurement": "Response After AII", "setting": "[6]", "value": 218, "unit": "mmHg"}, {"measurement": "Response After AII", "setting": "[19]", "value": 195, "unit": "mmHg"}, {"measurement": "Response Change", "setting": "[19]", "value": "23 mmHg and 30 mmHg"}, {"measurement": "Response After AII", "setting": "[7]", "value": 230, "unit": "mmHg"}, {"measurement": "Response After AII", "setting": "[20]", "value": 225, "unit": "mmHg"}, {"measurement": "Response Change", "setting": "[20]", "value": "35 mmHg and 50 mmHg"}, {"measurement": "Response After AII", "setting": "[21]", "value": "205 mmHg and 175 mmHg"}, {"measurement": "Response Change", "setting": "[21]", "value": "15 mmHg and 5 mmHg"}, {"measurement": "Response After AII", "setting": "[22]", "value": "210 mmHg and 173 mmHg"}, {"measurement": "Response Change", "setting": "[22]", "value": "15 mmHg and 8 mmHg"}, {"measurement": "Response After AII", "setting": "[10]", "value": 210, "unit": "mmHg"}, {"measurement": "Response After AII", "setting": "[23]", "value": 185, "unit": "mmHg"}, {"measurement": "Response Change", "setting": "[23]", "value": "10 mmHg and 15 mmHg"}, {"measurement": "Response After AII", "setting": "[24]", "value": "220 mmHg and 200 mmHg"}, {"measurement": "Response Change", "setting": "[24]", "value": "20 mmHg and 15 mmHg"}, {"measurement": "Response After AII", "setting": "[25]", "value": "215 mmHg and 205 mmHg"}, {"measurement": "Response Change", "setting": "[25]", "value": "15 mmHg and 35 mmHg"}, {"measurement": "Response After AII", "setting": "[26]", "value": "215 mmHg and 205 mmHg"}, {"measurement": "Response Change", "setting": "[26]", "value": "15 mmHg and 35 mmHg"}, {"measurement": "Response After AII", "setting": "[27]", "value": "250 mmHg and 230 mmHg"}, {"measurement": "Response Change", "setting": "[27]", "value": "30 mmHg and 50 mmHg"}, {"measurement": "Control Before AII", "setting": "before AII 0.05 mcg/kg IV, 30 min post dose, 10 mg/kg", "value": "195 mmHg and 177 mmHg"}, {"measurement": "Control Before AII", "setting": "before AII 0.05 mcg/kg IV, 60 min post dose, 10 mg/kg", "value": "195 mmHg and 160 mmHg"}, {"measurement": "Control Before AII", "setting": "before AII 0.05 mcg/kg IV, 90 min post dose, 10 mg/kg", "value": "205 mmHg and 160 mmHg"}, {"measurement": "Control Before AII", "setting": "before AII 0.05 mcg/kg IV, 120 min post dose, 10 mg/kg", "value": "195 mmHg and 190 mmHg"}, {"measurement": "Control Before AII", "setting": "before AII 0.05 mcg/kg IV, 180 min post dose, 10 mg/kg", "value": "195 mmHg and 165 mmHg"}, {"measurement": "Control Before AII", "setting": "before AII 0.05 mcg/kg IV, 240 min post dose, 10 mg/kg", "value": "195 mmHg and 165 mmHg"}, {"measurement": "Control Before AII", "setting": "before AII 0.05 mcg/kg IV, 300 min post dose, 10 mg/kg", "value": "195 mmHg and 175 mmHg"}, {"measurement": "Control Before AII", "setting": "before AII 0.1 mcg/kg IV, 30 min post dose, 10 mg/kg", "value": "190 mmHg and 170 mmHg"}, {"measurement": "Control Before AII", "setting": "before AII 0.1 mcg/kg IV, 60 min post dose, 10 mg/kg", "value": "195 mmHg and 165 mmHg"}, {"measurement": "Control Before AII", "setting": "before AII 0.1 mcg/kg IV, 90 min post dose, 10 mg/kg", "value": "200 mmHg and 170 mmHg"}, {"measurement": "Control Before AII", "setting": "before AII 0.1 mcg/kg IV, 120 min post dose, 10 mg/kg", "value": "200 mmHg and 185 mmHg"}, {"measurement": "Control Before AII", "setting": "before AII 0.1 mcg/kg IV, 180 min post dose, 10 mg/kg", "value": "200 mmHg and 170 mmHg"}, {"measurement": "Control Before AII", "setting": "before AII 0.1 mcg/kg IV, 240 min post dose, 10 mg/kg", "value": "200 mmHg and 170 mmHg"}, {"measurement": "Control Before AII", "setting": "before AII 0.1 mcg/kg IV, 300 min post dose, 10 mg/kg", "value": "220 mmHg and 180 mmHg"}]}
